Experimental data reported in patent US11186564B2, “Dual NAV1.2/5HT2a inhibitors for treating CNS disorders” (Sunovion Pharmaceuticals Inc., priority 2016, dated 2021).
Where two headings read alike, the source gives them in different places.

Legend:
[1] = molecular target: human sodium channel NaV1.2 (Homo sapiens, UniProt Q99250); assay: NaV1.2 inhibition, automated patch-clamp (Q-Patch HTX), slow inactivated state (state C); assay type: cell-based; settings: hNaV1.2 CHO cells, slow inactivated state; for inhibition at 1 µM: 1 μM compound, read-out: NaV1.2 (% inh), 1 μM; for IC50: read-out: NaV1.2 IC50; for inhibition at 10 µM: 10 μM compound, read-out: NaV1.2 (% inh), 10 μM
Chain of human sodium channel NaV1.2 (Q99250 whole entry): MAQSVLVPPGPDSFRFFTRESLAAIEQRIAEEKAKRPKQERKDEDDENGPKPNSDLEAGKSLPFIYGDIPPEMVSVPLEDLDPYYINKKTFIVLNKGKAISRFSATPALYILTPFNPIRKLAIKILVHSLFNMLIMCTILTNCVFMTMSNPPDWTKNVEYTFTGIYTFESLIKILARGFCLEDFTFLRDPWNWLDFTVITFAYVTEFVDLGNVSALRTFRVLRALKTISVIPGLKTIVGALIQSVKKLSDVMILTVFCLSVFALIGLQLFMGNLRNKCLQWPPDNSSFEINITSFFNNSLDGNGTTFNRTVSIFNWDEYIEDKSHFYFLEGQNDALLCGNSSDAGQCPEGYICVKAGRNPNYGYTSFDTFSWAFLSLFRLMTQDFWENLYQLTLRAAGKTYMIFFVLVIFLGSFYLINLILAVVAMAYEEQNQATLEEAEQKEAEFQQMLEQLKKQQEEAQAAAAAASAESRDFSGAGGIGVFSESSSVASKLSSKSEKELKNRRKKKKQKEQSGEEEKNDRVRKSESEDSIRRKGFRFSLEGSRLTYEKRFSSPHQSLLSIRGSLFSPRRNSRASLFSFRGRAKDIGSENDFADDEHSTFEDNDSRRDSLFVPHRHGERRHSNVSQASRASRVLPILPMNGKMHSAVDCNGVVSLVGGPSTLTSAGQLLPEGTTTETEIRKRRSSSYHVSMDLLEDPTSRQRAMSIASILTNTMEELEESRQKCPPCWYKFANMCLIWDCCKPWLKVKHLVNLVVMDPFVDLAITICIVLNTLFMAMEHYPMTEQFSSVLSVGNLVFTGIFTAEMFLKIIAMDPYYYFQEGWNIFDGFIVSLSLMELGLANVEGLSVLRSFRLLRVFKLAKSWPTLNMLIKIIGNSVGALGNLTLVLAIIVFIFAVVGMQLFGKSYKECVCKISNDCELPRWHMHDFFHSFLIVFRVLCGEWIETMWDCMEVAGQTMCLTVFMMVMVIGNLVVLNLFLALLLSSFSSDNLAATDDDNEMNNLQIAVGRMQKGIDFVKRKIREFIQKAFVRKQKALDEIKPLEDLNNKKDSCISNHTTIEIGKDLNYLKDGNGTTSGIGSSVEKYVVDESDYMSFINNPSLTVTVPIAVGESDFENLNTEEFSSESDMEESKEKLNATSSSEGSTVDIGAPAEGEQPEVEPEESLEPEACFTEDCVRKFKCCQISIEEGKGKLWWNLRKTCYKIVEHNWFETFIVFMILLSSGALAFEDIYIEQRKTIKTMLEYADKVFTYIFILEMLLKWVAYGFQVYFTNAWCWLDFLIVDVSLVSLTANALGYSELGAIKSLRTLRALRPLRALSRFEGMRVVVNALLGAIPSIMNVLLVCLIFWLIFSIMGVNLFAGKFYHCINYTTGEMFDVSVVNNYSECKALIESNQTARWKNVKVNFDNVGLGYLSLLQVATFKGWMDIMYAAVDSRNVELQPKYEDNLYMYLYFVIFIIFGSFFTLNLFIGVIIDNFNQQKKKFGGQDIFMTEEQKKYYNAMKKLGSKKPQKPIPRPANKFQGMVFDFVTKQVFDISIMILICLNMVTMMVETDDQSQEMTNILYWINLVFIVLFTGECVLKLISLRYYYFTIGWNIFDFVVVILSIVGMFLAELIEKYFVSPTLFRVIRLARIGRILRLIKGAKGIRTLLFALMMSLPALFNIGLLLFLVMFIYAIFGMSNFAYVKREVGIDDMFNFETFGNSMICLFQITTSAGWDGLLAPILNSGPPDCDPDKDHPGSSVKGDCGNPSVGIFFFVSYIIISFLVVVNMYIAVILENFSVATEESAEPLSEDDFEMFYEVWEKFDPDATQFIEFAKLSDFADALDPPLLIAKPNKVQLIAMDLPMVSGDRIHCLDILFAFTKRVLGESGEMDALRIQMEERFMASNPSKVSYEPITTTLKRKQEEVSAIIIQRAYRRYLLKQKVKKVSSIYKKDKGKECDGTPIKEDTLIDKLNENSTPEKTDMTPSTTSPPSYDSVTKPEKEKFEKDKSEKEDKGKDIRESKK
Outline: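 CHO K-1 cells stably expressing human NaV1.2, whole-cell automated patch clamp, holding −100 mV; slow-inactivated state (state C) read at a 5 ms step to 0 mV after 10 s at −50 mV and 15 ms at −90 mV. Percent inhibition vs vehicle; IC50 by nonlinear least-squares fit.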

[2] = molecular target: T1, recombinant human serotonin receptor 5-HT2A (Homo sapiens, UniProt P28223); assay: 5-HT2A antagonist Ca2+ assay in CHO-K1 cells (method A aequorin luminescence / method B FLIPR fluorescence); assay type: cell-based; settings: antagonist mode vs EC80 of reference agonist, method A or B
T1 construct: expressed in transfected cells; method B: loaded with Ca2+ dye
T1 sequence (P28223 whole entry): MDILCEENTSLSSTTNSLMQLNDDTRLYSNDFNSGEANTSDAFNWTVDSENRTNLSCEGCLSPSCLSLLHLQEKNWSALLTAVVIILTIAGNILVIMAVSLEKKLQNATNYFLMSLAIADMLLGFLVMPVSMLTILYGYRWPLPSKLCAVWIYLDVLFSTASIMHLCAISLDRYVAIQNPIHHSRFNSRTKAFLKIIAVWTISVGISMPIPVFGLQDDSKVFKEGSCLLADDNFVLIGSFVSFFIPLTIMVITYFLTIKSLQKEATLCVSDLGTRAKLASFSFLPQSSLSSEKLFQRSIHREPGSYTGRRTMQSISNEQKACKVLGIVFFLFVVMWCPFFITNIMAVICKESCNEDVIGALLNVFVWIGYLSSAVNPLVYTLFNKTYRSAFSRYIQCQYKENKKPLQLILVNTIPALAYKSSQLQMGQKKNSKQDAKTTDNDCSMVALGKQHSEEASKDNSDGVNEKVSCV
Outline: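 Method A: CHO-K1 cells co-expressing human 5-HT2A and mitochondrial apoaequorin were given reference agonist at EC80 15 min after compound, with luminescence read. Method B: dye-loaded 5-HT2A CHO-K1 cells were pretreated with compound, then given serotonin at EC80, with FLIPR fluorescence read. IC50s came from nonlinear fits of percent inhibition.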

inhibition at 1 µM [1]	inhibition at 10 µM [1]	SMILES	IC50 ([2]; read-out: 5HT2A IC50)	IC50 [1]	IC50 ([2]; 5HT2A IC50, μM)
2%	–	Fc1ccc(OC2CCN(CCC3CCCCO3)CC2)cc1 (stereo not drawn) [Example 168, 4-(4-fluorophenoxy)-1-(2-(tetrahydro-2H-pyran-2-yl)ethyl)piperidine]	0.13 µM	–	–
–	–	COc1ccc2c(c1)C(CN1CCC3(CC1)OCc1ccccc13)CC2 (stereo not drawn) [Example 390, 1′-((6-methoxy-2,3-dihydro-1H-inden-1-yl)methyl)-3H-spiro[isobenzofuran-1,4′-piperidine]]	0.75 µM	590 nM	–
–	–	CN(C)c1ccc2c(c1)C(CN1CCC(Oc3ccc(F)cc3)CC1)CC2 (stereo not drawn) [Example 116, 3-((4-(4-fluorophenoxy)piperidin-1-yl)methyl)-N,N-dimethyl-2,3-dihydro-1H-inden-5-amine]	0.01 µM	2340 nM	–
–	–	COc1ccccc1OC1CCN(CC2Cc3ccccc3C2)[C@@H](C)C1 (single isomer, unassigned) [Example 147]	0.07 µM	1530 nM	–
–	68%	O=C1c2ccccc2CCCN1CCCN1CCC(Oc2ccc(F)cc2)CC1 [Example 223, 2-(3-(4-(4-fluorophenoxy)piperidin-1-yl)propyl)-2,3,4,5-tetrahydro-1H-benzo[c]azepin-1-one]	0.03 µM	–	–
–	–	O[C@@H](COC1CCCCC1)CN1CCC2(CCN(c3ccccc3)C2)C1 (stereo partly drawn) [Example 346, (2R)-1-(cyclohexyloxy)-3-(7-phenyl-2,7-diazaspiro[4.4]nonan-2-yl)propan-2-ol]	0.27 µM	320 nM	–
34%	–	Fc1ccc(OC2CCN(CCC3CCc4ncccc43)CC2)cc1 (stereo not drawn) [Example 172, 5-(2-(4-(4-fluorophenoxy)piperidin-1-yl)ethyl)-6,7-dihydro-5H-cyclopenta[b]pyridine]	0.12 µM	–	–
–	–	Fc1ccc(OC2CCN(CC3CCc4cccc(F)c43)CC2)cc1 (stereo not drawn) [Example 119, 1-((7-fluoro-2,3-dihydro-1H-inden-1-yl)methyl)-4-(4-fluorophenoxy)piperidine]	0.02 µM	180 nM	–
–	–	Fc1ccc(OC2CCN(CCC3CCOc4ccccc43)CC2)cc1 (stereo not drawn) [Example 183, 1-(2-(chroman-4-yl)ethyl)-4-(4-fluorophenoxy)piperidine]	0.04 µM	1590 nM	–
18%	52%	O=C1c2ccccc2CCN1CCN1CCC(Oc2ccccc2)CC1 [Example 191, 2-(2-(4-phenoxypiperidin-1-yl)ethyl)-3,4-dihydroisoquinolin-1(2H)-one]	0.05 µM	–	–
–	–	COc1ccccc1OC1CCN(CC2c3ccccc3OC2(C)C)CC1 (stereo not drawn) [Example 129, 1-((2,2-dimethyl-2,3-dihydrobenzofuran-3-yl)methyl)-4-(2-methoxyphenoxy)piperidine]	0.4 µM	1060 nM	–
–	–	O[C@@H](COC1CCCCC1)CN1[C@@H]2CC[C@H]1CN(c1ccccc1)C2 [Example 288, (R)-1-(cyclohexyloxy)-3-((1R,5S)-3-phenyl-3,8-diazabicyclo[3.2.1]octan-8-yl)propan-2-ol]	–	440 nM	0.04 µM
0%	–	O=C1c2cc(Cl)ccc2CN1CCN1CCC(Oc2ccc(F)cc2)CC1 [Example 189, 6-chloro-2-(2-(4-(4-fluorophenoxy)piperidin-1-yl)ethyl)isoindolin-1-one]	0.18 µM	–	–
–	–	Fc1ccc(OC2CCN(CC3CCc4ccccc43)CC2)cc1 (stereo not drawn) [Example 112, 1-((2,3-dihydro-1H-inden-1-yl)methyl)-4-(4-fluorophenoxy)piperidine]	0.004 µM	1440 nM	–
–	–	COc1cccc(OCCN2CCN(c3nsc4ccccc34)CC2)c1 [Example 68, 3-(4-(2-(3-methoxyphenoxy)ethyl)piperazin-1-yl)benzo[d]isothiazole]	0.004 µM	730 nM	–

SMILES	inhibition at 1 µM [1]	inhibition at 10 µM [1]	IC50 ([2]; read-out: 5HT2A IC50)	IC50 [1]	IC50 ([2]; 5HT2A IC50, μM)
OC(COC1CCCCC1)CN1C[C@H]2C[C@@H](C1)N2c1ccccc1 (stereo partly drawn) [Example 294, 1-(cyclohexyloxy)-3-((1R,5S)-6-phenyl-3,6-diazabicyclo[3.1.1]heptan-3-yl)propan-2-ol]	–	47%	0.28 µM	–	–
